# Measured values: publication PMC5956543, “Antimicrobial and antioxidant activities of triterpenoid and phenolic derivatives from two Cameroonian Melastomataceae plants: Dissotis senegambiensis and Amphiblemma monticola” (BMC Complementary and Alternative Medicine, 2018)
# Columns and labels:
# [1] = test system: S. aureus ATCC25923; test: Broth microdilution antimicrobial assay (MIC/MMC); type: cell-based, Staphylococcus aureus; conditions: for MIC / MBC: Staphylococcus aureus, 24 h; for MIC: 37 °C; for MBC: no growth after sub-culturing
# Protocol: (§1) The microorganisms used in this study include four bacterial (Staphylococcus aureus ATCC25923, methicillin sensitive S. aureus MSSA1, methicillin resistant S. aureus MRSA3 and methicillin resistant S. aureus MRSA4) and three yeast strains (Candida albicans ATCC10231, Candida tropicalis PK233 and Cryptococcus neoformans H99). These microorganisms were taken from our laboratory collection. The fungal and bacterial strains were grown at 37 °C and maintained on Sabouraud Dextrose Agar (SDA, Conda, Madrid, Spain) and nutrient agar (NA, Conda) slants respectively.
# (§2) The inocula of bacteria and yeasts were prepared from overnight cultures as previously described. Absorbance was read spectrophotometrically at 530 nm and 600 nm for yeasts and bacteria respectively. The final concentrations of microbial suspensions were 2.5 × 10^5 cells/mL for yeasts and 10^6 CFU/mL for bacteria.
# (§3) The antimicrobial activity was evaluated by determining the minimum inhibitory concentrations (MICs). MICs of extracts and compounds were determined by broth micro dilution. Each test sample was dissolved in 10% v/v aqueous dimethylsulfoxide (DMSO) to give a stock solution. This was serially diluted two-fold in Mueller-Hinton Broth (MHB) for bacteria and Sabouraud Dextrose Broth (SDB) for fungi to obtain a concentration range of 4096 to 0.25 μg/mL. Then, 100 μL of each sample concentration was added to respective wells (96-well micro plate) containing 90 μL of SDB/ MHB and 10 μL of inoculum to give final concentration ranges of 2048 to 4 μg/mL (for extracts) and 256 to 0.125 μg/mL (for compounds). Dilutions of nystatin (Sigma-Aldrich, Steinheim, Germany) and ciprofloxacin (Sigma-Aldrich, Steinheim, Germany) were used as positive controls for yeasts and bacteria respectively. Broth with 10 μL of DMSO was used as negative control. The cultured micro plates were covered; then, the contents of each well were mixed thoroughly using a plate shaker (Flow Laboratory, Germany) and incubated at 37 °C for 24 h (bacteria) and 48 h (yeasts) under shaking. After the incubation period, MICs were assessed visually and were taken as the lowest sample concentration at which there was no growth or virtually no growth. The lowest concentration that yielded no growth after the sub-culturing was considered as the minimum microbicidal concentrations (MMCs). All the tests were performed in triplicate.
# [2] = test system: S. aureus MRSA3; test: Broth microdilution antimicrobial assay (MIC/MMC); type: cell-based, Staphylococcus aureus; conditions: for MMC/MIC / MBC / MIC: S. aureus MRSA3; for MBC / MIC: Staphylococcus aureus, 24 h; for MBC: no growth after sub-culturing; for MIC: 37 °C; for activity against methicillin-resistant S. aureus (in words): MRSA3
# Protocol: as §1, §2, §3
# [3] = test system: S. aureus MRSA4; test: Broth microdilution antimicrobial assay (MIC/MMC); type: cell-based, Staphylococcus aureus; conditions: for MMC/MIC / MBC / MIC: S. aureus MRSA4; for MBC / MIC: Staphylococcus aureus, 24 h; for MBC: no growth after sub-culturing; for MIC: 37 °C; for activity against methicillin-resistant S. aureus (in words): MRSA4
# Protocol: as §1, §2, §3
# [4] = test system: S. aureus MSSA1; test: Broth microdilution antimicrobial assay (MIC/MMC); type: cell-based, Staphylococcus aureus; conditions: for MIC / MBC: Staphylococcus aureus, 24 h; for MIC: 37 °C; for MBC: no growth after sub-culturing
# Protocol: as §1, §2, §3
# [5] = test system: C. albicans ATCC10231; test: Broth microdilution antimicrobial assay (MIC/MMC); type: cell-based, Candida albicans; conditions: for MIC: Candida albicans, 37 °C, 48 h, read-out: MIC; for MMC: no growth after sub-culturing
# Protocol: as §1, §2, §3
# [6] = test system: C. tropicalis PK233; test: Broth microdilution antimicrobial assay (MIC/MMC); type: cell-based, Candida tropicalis; conditions: for MIC / MFC: Candida tropicalis, 48 h; for MIC: 37 °C, read-out: MIC; for MFC: no growth after sub-culturing
# Protocol: as §1, §2, §3
# [7] = test system: C. neoformans H99; test: Broth microdilution antimicrobial assay (MIC/MMC); type: cell-based, Cryptococcus neoformans; conditions: for MIC / MFC: Cryptococcus neoformans, 48 h; for MIC: 37 °C, read-out: MIC; for MFC: no growth after sub-culturing
# Protocol: as §1, §2, §3
# [8] = Ferric reducing antioxidant power (FRAP) assay; conditions: Perl's Prussian blue at 700 nm; Fig. 2; BHT positive control
# Protocol: The FRAP was determined by the Fe^3+-Fe^2+ transformation in the presence of extracts and compounds as previously described. The Fe^2+ was monitored by measuring the formation of Perl’s Prussian blue at 700 nm. Butylated hydroxytoluene (BHT) was used as a positive control. All the tests were performed in triplicate.
# [9] = DPPH free radical scavenging assay; conditions: Fig. 3; vitamin C standard
# Protocol: The free radical scavenging activity of extracts and compounds was evaluated according to described methods. The EC50 (μg/ml), which is the amount of sample necessary to inhibit by 50% the absorbance of free radical DPPH was calculated. Vitamin C was used as a standard control. All the analyses were carried out in triplicate.
# [10] = test system: bacterial and fungal strains; test: Broth microdilution MIC, range over all tested strains; type: cell-based; conditions: for MIC: range over all bacterial and fungal strains, read-out: MIC
# Protocol: as §1, §2, §3
# [11] = test system: S. aureus strains; test: Broth microdilution MIC, range over the S. aureus strains; type: cell-based; conditions: Staphylococcus aureus; range over the four S. aureus strains
# Protocol: as §1, §2
# (§4) The antimicrobial activity was evaluated by determining the minimum inhibitory concentrations (MICs). MICs of extracts and compounds were determined by broth micro dilution. Each test sample was dissolved in 10% v/v aqueous dimethylsulfoxide (DMSO) to give a stock solution. […] After the incubation period, MICs were assessed visually and were taken as the lowest sample concentration at which there was no growth or virtually no growth. […]
# [12] = test system: yeast strains; test: Broth microdilution MIC, range over the yeast strains; type: cell-based; conditions: range over the three yeast strains
# Protocol: as §1, §2, §4
Compound,MMC/MIC [1],MIC [1],MBC [1],MMC/MIC [2],MBC [2],MIC [2],MMC/MIC [3],MBC [3],MIC [3],MMC/MIC [4],MIC [4],MBC [4],MIC [5],MMC [5],MMC/MIC [6],MIC [6],MFC [6],MMC/MIC [7],MIC [7],MFC [7],other results
"COC(=O)c1cc(O)c(O)c(O)c1-c1c(C(=O)OC)cc(O)c(O)c1O [Compound 8, dimethyl 4,4′,5,5′,6,6′-hexahydroxybiphenyl-2,2′-dicarboxylate]",2,32 µg/mL,64 µg/mL,2,128 µg/mL,64 µg/mL,2,256 µg/mL,128 µg/mL,1,32 µg/mL,32 µg/mL,128 µg/mL,> 256 µg/mL,1,16 µg/mL,16 µg/mL,1,32 µg/mL,32 µg/mL,"reducing power (FRAP, in words) [8]: highest reducing power; DPPH radical-scavenging activity (in words) [9]: lowest EC50; MIC [10]: 8 to 128 µg/mL"
"COc1cc2c(=O)oc3c(OC)c(O)cc4c(=O)oc(c1O)c2c34 [Compound 7, 3,4′-di-O-methylellagic acid]",1,32 µg/mL,32 µg/mL,2,32 µg/mL,16 µg/mL,2,64 µg/mL,32 µg/mL,1,16 µg/mL,16 µg/mL,32 µg/mL,64 µg/mL,2,32 µg/mL,64 µg/mL,1,32 µg/mL,32 µg/mL,"activity against methicillin-resistant S. aureus (in words) [2]: prominent activity; activity against methicillin-resistant S. aureus (in words) [3]: prominent activity; MMC/MIC [5]: 2; reducing power (FRAP, in words) [8]: lowest reducing power; DPPH radical-scavenging activity (in words) [9]: highest EC50; MIC [11]: 16 to 32 µg/mL; MIC [10]: 16 to 32 µg/mL"
"O=c1oc2c(O)c(O)cc3c(=O)oc4c(O)c(O)cc1c4c23 [Compound 10, ellagic acid]",2,8 µg/mL,16 µg/mL,2,64 µg/mL,32 µg/mL,1,32 µg/mL,32 µg/mL,1,16 µg/mL,16 µg/mL,16 µg/mL,16 µg/mL,1,8 µg/mL,8 µg/mL,1,16 µg/mL,16 µg/mL,activity against methicillin-resistant S. aureus (in words) [2]: prominent activity; activity against methicillin-resistant S. aureus (in words) [3]: prominent activity; MMC/MIC [5]: 1; MIC [12]: 8 to 16 µg/mL; antimicrobial activity (in words) ([10]; all the tested bacterial and fungal species): active against all the tested bacterial and fungal species; MIC [10]: 8 to 32 µg/mL
